Results on 3 compounds are retold here after patent publication US12673039B2, “Methods of inducing autophagy using coumarin derivatives and related compounds” (Buck Institute for Research on Aging, priority 2019, dated 2026).

One assay relates to SH-SY5Y-P301L-TAU cells. The experiment in a line: Phosphorylated-TAU immunoblot in SH-SY5Y-P301L-TAU cells. The following applies: SH-SY5Y cells expressing mutant P301L-TAU, 24 hours. In kind it is cell-based, human. The method, then:
(§1) FIG. 30, panels A-B: FXR modulation enhances HLH-30 expression in human neuronal SH-SY5Y cell. Panel A) TFEB expression in SH-SY5Y cells was determined by immunoblot against TFEB in protein lysates collected after 24 hours of treatment with FXR agonist GW4064 and DMSO control. Panel B) Phosphorylated-TAU levels in SH-SY5Y-P301L-TAU cells was determined by immunoblot against (Ser202, Thr205) in protein lysates collected after 24 hours of treatment with known FXR antagonist Z-gugglsterone (z-GG), DY268 and DMSO control.
On the technique in general: Immunoblotting shows a protein as a band on a membrane.

For another assay, the system named is SH-SY5Y cells. The experiment in a line: Immunoblot of TFEB, cathepsin-D and SHP-1 in SH-SY5Y cells. Type of assay: cell-based, human. The following applies: 24 hours. The method, then:
FIG. 23, panels A-H: FXR modulation enhances HLH-30 expression in human neuronal SH-SY5Y cells. Panel A) Effects of AIC106 on human FXR activity was determined in a mammalian one-hybrid based kit assay by quantifying changes in the luciferase activity of FXR ligand (GW4064, GW) induced treatment. [N=3 independent experiments (mean±SD). ****p<0.0001, by one-way ANOVA with Tukey's multiple comparisons test]. Panel B) Protein expression of TFEB, cathepsin-D (CAT-D) and small heterodimer partner-1 (SHP-1) was determined by immunoblot in neuronal SH-SY5Y cells post-24 hours of treatment with AIC106 and DMSO-control. Panel C) AIC106 enhances autophagic flux in neuronal SH-SY5Y cells. Autophagic flux in DMSO-control and AIC106 treated neuronal cells was determined by quantifying levels of autophagosome specific LC3-II protein both in presence and absence of autophagy inhibitor bafliomycin A1 (Baf A, 10 nM). Panel D) Relative fold change in the band intensity of LC3-II protein, normalized to loading control actin. Values are relative to DMSO-control. [N=3 independent experiments (mean±SD). *p<0.05 and ****p<0.0001, by one-way ANOVA with Tukey's multiple comparisons test]. Panel E) Effects of AIC106 treatment for 72 hours on basal TAU and phosphorylated-TAU in differentiated human neuronal SH-SHY5Y and heterozygous TSC1(+/−) mutant SH-SY5Y neuronal cells were quantitated by immunoblotting following total protein extraction. Relative fold change in the band intensity compared to SH-SY5Y control treatment for (panel F) total TAU and (panel G) phosphorylated-TAU, normalized to loading control GAPDH. [N=3 independent experiments (mean±SD). *p<0.05 and **p<0.01, by one-way ANOVA with Sidak's multiple comparisons test]. Panel H) AIC106 treatment improves viability and health of differentiated SH-SY5Y-TSC1(+/−) neuronal cells. Images were taken post-96 hours after treatment of differentiated neuronal cells with AIC106.
as §1

Structures are written as SMILES.

As to `COc1cccc(Cn2cc(C(=O)Nc3ccc(C)c(S(=O)(=O)N4CCOCC4)c3)c(-c3ccc(C)cc3)n2)c1` [DY268], in the assay with SH-SY5Y-P301L-TAU cells, the phosphorylated-TAU expression result was “reduced expression of phosphorylated-TAU”. Regarding `C/C=C1\C(=O)C[C@H]2[C@@H]3CCC4=CC(=O)CC[C@]4(C)[C@H]3CC[C@]12C` [Z-guggulsterone], the phosphorylated-TAU expression result in the assay on SH-SY5Y-P301L-TAU cells is reported as “reduced expression of phosphorylated-TAU”.

Turning to `CC(C)c1onc(-c2c(Cl)cccc2Cl)c1COc1ccc(/C=C/c2cccc(C(=O)O)c2)c(Cl)c1` [GW4064, reference compound], in the assay with SH-SY5Y cells, the TFEB protein expression entry is recorded as “reduced TFEB expression”.
